Test results from PMC10380841, “Synthesis, Characterization and Cytotoxic Evaluation of New Pyrrolo[1,2-b]pyridazines Obtained via Mesoionic Oxazolo-Pyridazinones” (International Journal of Molecular Sciences, 2023).

System: Triticum aestivum L.
Assay: Triticum test, phytotoxicity (main root length)
Format: in vivo
Conditions: 10–1000 µM
Protocol: Phytobiological testing (Triticum test) was performed by the Constantinescu method which consists in determining the maximum active dilution of a compound. Depending on the duration of action, it can influence root elongation and the […] film. […] Embryonic wheat roots were obtained by germinating homogeneous wheat caryopses in Linhart pots. Then the caryopses with a main root length of 1 cm were placed in the test solutions. For the determination of the action of each compound, five dilutions in the concentration range of 10–1000 µM were obtained and 11 caryopses were placed in them. Petri dishes containing 15 mL of diluted solution were kept under constant conditions of temperature (25 °C), and humidity (60%), in the absence of light. […] The results were expressed in comparison with a 1% DMSO control.
Statistical analyses were performed using the computing and programming environment R, R, v. 4.2.1 [68], under Rstudio, v. 2022.07.2+576 “Spotted Wakerobin” for Windows (RStudio, PBC, Boston, 2022), both for the Triticum and Artemia tests. It used a parametric mixed-effects model (R package “lme4”) and a robust mixed-effects model (R package “robustlmm”), in which root length measurements (Triticum) from all three days were used as the dependent variable, whereas compound, concentration and time were treated as fixed effects, with time (day of measurement) also treated as a random effect. Assessing statistical significance for mixed-effects statistical models is controversial and complex, but as a pragmatic way of working, we have estimated p-values using the Kenward–Rogers approximation (R package “sjPlot”). A variety of R base functions and R packages were used to diagnose the regression models (“car” [72], “MASS” [73], and “gvlma” [74]). Mixed boxplot–dotplot plots were generated using the “ggplot2” package.
The “drc” R package was used to estimate IC50 values for the Triticum bioassay by nonlinear modeling. For Triticum, the relationship between root length and concentration was modeled using Weibull functions with 2, 3, or 4 parameters, depending on the data distribution, the models being selected from a range of several models with different functions and parameters, based on the Akaike’s information criterion (AIC).

CCOC(=O)c1cc(CC)n2nc(-c3ccc(F)cc3)ccc12 [Compound 5e, Ethyl 7-ethyl-2-(4-fluorophenyl)pyrrolo[1,2-b]pyridazine-5-carboxylate]
effect on root length (vs 1% DMSO control): concentration-dependent inhibitory effect | IC50 (Triticum aestivum, 72 h, Triticum root length, measured over three days): 607 µM
